Data: article PMC8009417, “Selective killing of homologous recombination-deficient cancer cell lines by inhibitors of the RPA:RAD52 protein-protein interaction” (PLoS ONE, 2021)

Columns and labels:
[1] = test system: homologous recombination (HR) in U2OS-DR cells; assay: Cell-based DSB repair assay, HR (DR-GFP reporter, FACS); conditions: 4 nM, 2 h pre-treatment, three days
Procedure: (A) The effect of mitoxantrone (MX) on SSA and HR were studied with cell-based DSB repair assays. U2OS-SA and U2OS-DR cells were pre-treated with mitoxantrone for two hours before transfection of the SceI-expression plasmid. Then cells were grown in the presence of mitoxantrone for three days. DSB repair activities were determined by (B) FACS analysis. […] U2OS-SA cells were pre-treated with indicated concentrations of mitoxantrone for two hours, before I-SceI-expression vector transfection. After 72 hours incubation, the cells were harvested, and lysates were prepared. Lysate from each treatment was analyzed by 12% SDS-PAGE and the expression levels of I-SceI was determined by the western blot using anti-HA antibody. The p70 of RPA was used as a loading control. Ratios of I-SceI to p70 was obtained with ImageJ and are shown at the bottom of the image. C: control experiment without the addition of mitoxantrone. (D, E) Analysis of DSB repair activiies by western blots. […] At least three independent experiments were performed. Error bars represent standard deviations.

[2] = test system: UWB1.289 cells with or without BRCA1 restoration; assay: Apoptosis by cleaved PARP western blot; assay type: cell-based, human; conditions: 0.2 μM for three days; BRCA1-mutated vs BRCA1-restored UWB1.289
Procedure: UWB1.289 cells with or without restoration of the BRCA1 expression were treated with 0.2 μM of mitoxantrone (MX) for three days. Olaparib (Ola) at 1 μM was used as control for the induction of apoptosis. Near EC50 concentrations were selected for each compound. After the treatment with each compound, cell lysates were prepared and cleaved PARP was detected with (A) anti-cleaved PARP antibody (Cell Signaling Technology #9541) and (B) anti-PARP antibody (Cell Signaling Technology #9542). Tubulin detected with anti-beta-tubulin antibody (Cell Signaling Technology #15115) was used as an internal control. (C) Ratios of cleaved PARP to tubulin were determined with ImageJ and graphed. Three independent experiments were performed and the mean values are shown. The bars indicate standard deviations. Statistical significance of differences was determined with Student t-test (* p<0.05 and ** p<0.01).

## O=C1c2c(O)ccc(O)c2C(=O)c2c(NCCNCCO)ccc(NCCNCCO)c21 [Mitoxantrone, mitoxantrone]
[1]
  HR suppression: 40% ± 7%
[2]
  Induction of apoptosis (cleaved PARP): preferentially induced apoptosis in the BRCA1-mutated UWB1.289
